The values that follow come from patent publication US20200341014A1, “PD Marker of Hepatocyte Growth Factor (HGF)” (EISAI R&D MANAGEMENT CO., LTD., priority 2016, published 2020).

Common to all, as to assay type: in vivo, mouse
The subject of test [1] is ApoA4 protein. Briefly: Western blot quantification of serum ApoA4 protein in mice administered rh-HGF and c-Met inhibitor (Example 2). The conditions noted are these: rh-HGF 0.5-15 mg/kg intravenous, 24 hours; FIG. 3. As for the experimental part: (§1) To BALB/cAnNCrlCrlj male 6 weeks-old mice (CHARLES RIVER JAPAN), c-Met inhibitor PF-04217903 (50 mg/kg) (Selleck Chemicals #S1094, lot. 05) or vehicle (5% DMSO, 10% Tween80, 6.7 mmol/L aqueous hydrochloric acid solution) was orally administered at a dose of 10 mL/kg, and after 1 hour, rh-HGF (0.5, 1.5, 5.0, or 15 mg/kg) or PBS was intravenously administered. […] After euthanization, hepatic tissue was collected and immersed in RNA later (Ambion, #AM7021). Serum was collected from the blood collected.
Using the above serum, ApoA4 protein was quantified by Western blot method. To the serum diluted 200-folds with PBS (−) (Wako), ¼ volume of the electrophoresis buffer solution (313 mM Tris-HCl (pH 6.8), 10% SDS, 30% Glycerol, 0.2 mg/mL Bromo-phenol blue, and 25% 2-Mercaptoethnol) was added (the final dilution of the serum will be 250-folds), and this was subjected to heat treatment at 95° C. for 3 minutes. […] After washing three times with the above wash solution, chemiluminescence solution SuperSignal West Dura Extended Duration Substrate (Thermo Scientific) was added to allow luminescence, and ApoA4 protein was detected with LAS-4000 (FUJIFILM).
For the results of serum ApoA4 protein quantification, Dunnett's multiple comparison test was carried out between the control and the rh-HGF administration groups.
In general terms: A western blot detects proteins with antibodies after separation by electrophoresis.

The subject of test [2] is ApoA4 protein. Briefly: Western blot quantification of serum ApoA4 protein in Jo2 liver failure mice. The conditions noted are these: rh-HGF at 1.5, 5, or 15 mg/kg, FIG. 4. How it is done:
To BALB/cAnNCrlCrlj male 6 weeks-old mice (CHARLES RIVER JAPAN), 0.23 mg/kg of anti-Fas monoclonal antibody (clone name: Jo2, BD Pharmingen, #554254, lot#3269634) was administered once into the tail vein to create an acute liver failure model. […] For the control group (Control), PBS was administered into the tail vein.
Quantification of serum ApoA4 protein was carried out according to Example 2.
With the measurement results of PT, AST, ALT, and serum ApoA4 protein, Dunnett's multiple comparison test was carried out between the control and the rh-HGF administration groups (FIG. 4).

Test [3] concerns ApoA4 mRNA. Briefly: Real-time PCR of liver ApoA4 mRNA in mice administered rh-HGF and c-Met inhibitor (Example 2). The conditions noted are these: rh-HGF 0.5-15 mg/kg intravenous, 24 hours; FIG. 2. How it is done: as §1
From the harvested liver, total RNA was purified with TRIZOL Reagent (Invitrogen, #15596-018), RNeasy Mini Kit (QIAGEN, #74104), and RNase-Free DNase set (QIAGEN, #79254), and RNA concentration was measured by absorbance.
Quantification of ApoA4 mRNA by real-time PCR method was carried out according to Example 1.
With the results of ApoA4 mRNA quantification, Dunnett's multiple comparison test was carried out between the control and the rh-HGF administration groups.
For orientation: Real-time PCR tracks product formation cycle by cycle.

Test [4] has as its system ApoA4 mRNA. As to the kind of experiment: Real-time PCR of ApoA4 mRNA from liver of healthy mice administered rh-HGF (Example 1). The following applies: rh-HGF 1.5 mg/kg intravenous, 8 and 24 hr; FIG. 1. How it is done: Using hepatocyte growth factor activator recombinantly expressed in Chinese hamster ovary (CHO) cells, human HGF recombinantly expressed in CHO cells were activated to obtain rh-HGF. BALB/cAnNCrlCrlj male 6 weeks-old mice (CHARLES RIVER JAPAN) were intravenously administered with Dulbecco's Phosphate buffered saline (PBS) (Wako, #045-29795) or rh-HGF (1.5 mg/kg). […] After euthanization, hepatic tissue was collected and immersed in RNA later (Ambion, #AM7021).
The same RNA as the sample employed for DNA microarray was reverse transcripted using High-Capacity cDNA Reverse Transcription Kit with RNase Inhibitor (Applied Biosystems, #4374966) to create cDNA. With the cDNA obtained as the template, the amount of ApoA4 mRNA expressed was examined by real-time PCR method. Hprt mRNA was used as the internal control for examination. For PCR reaction, PCR amplification reaction was carried out with TaqMan Fast Advanced Master Mix (Applied Biosystems, #4444557) and TaqMan Assay (ApoA4: Mm00431814_m1, Hprt: Mm03024075_m1, Applied Biosystems) and using ViiA7 Real-time PCR System (Applied Biosystems). […]
With the results of ApoA4 mRNA quantification, Dunnett's multiple comparison test was carried out between the control and the rh-HGF administration groups (FIG. 1).

On to “rh-HGF: human HGF recombinantly expressed in CHO cells, activated with hepatocyte growth factor activator recombinantly expressed in CHO cells”, for which, in test [1], the “ApoA4 protein expression in the serum” value was “induction of ApoA4 protein expression”. Further, the “Blood ApoA4 protein value” in test [2] is “significant elevation”. For the same substance, the “ApoA4 mRNA expression in the liver” value in test [3] is given as “significantly induced/enhanced”. Moreover, the “ApoA4 mRNA expression in liver (real-time PCR, Hprt internal control)” value in test [4] is recorded as “strongly enhanced”.
